Test results reported in patent US9386767B2, “Derivatives of dillapiol and related monolignans and use thereof” (UNIVERSITY OF OTTAWA, priority 2011, dated 2016).
“And” between values parts separate entries of the source, which are not always exact repeats. Equal values may be shown once. Read-outs that look alike come from different tables or passages of the source.

What was measured:
CYP3A4 (BDGentest) = target: T1, CYP3A4 (BDGentest) (Homo sapiens, UniProt P08684); experiment: New CYP3A4 bioassay with dibenzylfluorescein (DBF) substrate (Foster et al. 2011); assay type: biochemical; conditions: for IC50: human microsomes; for % Activity relative to dillapiol = 1: new CYP3A4 bioassay, inhibition relative to dillapiol
T1 construct: purchased BDGentest
T1 sequence (P08684 whole entry): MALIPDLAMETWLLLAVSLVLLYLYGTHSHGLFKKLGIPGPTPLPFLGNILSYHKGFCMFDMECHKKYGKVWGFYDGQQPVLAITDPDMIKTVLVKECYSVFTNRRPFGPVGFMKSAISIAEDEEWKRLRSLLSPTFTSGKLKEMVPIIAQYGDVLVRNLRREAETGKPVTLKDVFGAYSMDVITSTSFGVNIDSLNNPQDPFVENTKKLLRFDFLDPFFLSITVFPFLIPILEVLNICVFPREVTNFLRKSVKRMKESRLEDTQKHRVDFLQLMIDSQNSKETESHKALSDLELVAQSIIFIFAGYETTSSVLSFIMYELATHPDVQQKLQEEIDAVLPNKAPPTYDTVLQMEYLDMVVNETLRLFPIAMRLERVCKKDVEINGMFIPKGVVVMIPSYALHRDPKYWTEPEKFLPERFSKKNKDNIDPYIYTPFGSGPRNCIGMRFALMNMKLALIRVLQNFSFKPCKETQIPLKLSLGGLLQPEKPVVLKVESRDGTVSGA
Experimental: (§1) In the second set of experiments, new CYP3A4 enzyme inhibition assays were conducted with a designed set of analogs and newer method described by Foster et al. (J. Agric. Food Chem, 2011, 59(9):5159-5163). This assay using the substrate dibenzylfluorescein (DBF) is considered more representative of CYP3A4 activity as compared to the benzyloxyresorufin assay previously used (Budzinski et al., 2000, Phytomedicine, 7(4):273-282).
(§2) Aliquots (10 μL) of stock solutions of the undiluted products were screened for their ability to inhibit CYP3A4 (BDGentest) metabolism of the non-fluorescent dibenzylfluorescein (DBF) substrates to the fluorescent metabolite using an in vitro fluorometric microtiter plate assay (CytoFluor Series 4000 multi-well plate reader). Briefly, assays were performed with 10 μL of product in clear-bottom, opaque-welled microtiter plates (96 well, Corning Costar). Control and control blank wells contained 5% ethanol, and test and test blank wells contained the product. All wells tested contained distilled water, β-nicotinamide adenine dinucleotide phosphate, reduced form (NADPH, Sigma Chemicals), and the enzyme substrate DBF (final concentration of 1 μM/well), for a total reaction volume of 200 μL. Control and test wells also contained live isozyme, within human microsomes, in phosphate buffer solution (PBS; 0.5 M, pH 7.4), and control blank and test blank wells contained denatured isoenzyme in PBS. Fluorescence was measured at 485 nm excitation and 530 nm emission, with a gain of 50.

human cytochrome CYP3A4 [1] = target: T2, human cytochrome CYP3A4 (Homo sapiens, UniProt P08684); conditions: Budzinski et al., 2000; cited from earlier work
T2 sequence (P08684 whole entry): as above

human cytochrome CYP3A4 [2] = target: T2, human cytochrome CYP3A4; experiment: CYP3A4 inhibition assay of dillapiol derivatives (earlier benzyloxyresorufin assay); assay type: biochemical; conditions: for Rel. Activity Dillapiol = 1.0: CYP3A4 inhibition relative to dillapiol
Experimental: A suite of dillapiol derivatives were synthesized and assayed for their capacity to inhibit human cytochrome CYP3A4. For each molecule, experimental IC50 values for CYP3A4 inhibition were determined. These IC50 values together with the log of the octanol-water partition coefficient (logP) and molecular refractivity (MR) are shown in Table 1, and were used as parameters to model a quantitative structure-activity relationship (QSAR). The resulting equations were used to guide the design of further derivatives with enhanced CYP3A4 inhibition.
as §1

parasitemia = conditions: co-administration of dillapiol with genudin, mice; cited from earlier work
mosquito larvae = conditions: co-administration of dillapiol with alpha-terthienyl; increased toxicity in mosquito larvae; cited from earlier work
CYP3A4 = target: T3, CYP3A4 (Homo sapiens, UniProt P08684); experiment: New CYP3A4 bioassay with dibenzylfluorescein (DBF) substrate (Foster et al. 2011); assay type: biochemical; conditions: human, CYP3A4 (BDGentest) isozyme within human microsomes, pH 7.4, probe dibenzylfluorescein (DBF), 1 μM final, DBF substrate 1 μM, human microsomes
T3 construct: purchased BDGentest
T3 sequence (P08684 whole entry): as above
Experimental: as §1, §2

[3] = DBF substrate 1 μM, read-out: IC50 (converted)
[4] = Table 1, CYP3A4 inhibition, read-out: IC50

C=CCc1cc2c(c(OC)c1OC)OCO2 [dillapiol, 4,5 dimethoxy-6-(2-propenyl)-1,3-benzodioxole]
IC50 (CYP3A4 (BDGentest); IC50, DBF substrate 1 μM): 9.45 µM
% Activity relative to dillapiol = 1 (CYP3A4 (BDGentest)): 1
inhibition of human cytochrome P450 3A4 (in words) (human cytochrome CYP3A4 [1]): inhibits the human cytochrome P450 3A4 (CYP3A4) enzyme
IC50 (human cytochrome CYP3A4 [2]): 410 µM
Rel. Activity Dillapiol = 1.0 (human cytochrome CYP3A4 [2]; Table 1): 1.0
increase of parasitemia clearance (parasitemia): 29%
synergism factor (mosquito larvae): 1.9

COc1c(CCCO)cc2c(c1OC)OCO2
IC50 (CYP3A4): 16 µM
IC50 (CYP3A4 (BDGentest); [3]): 16.6 µM
% Activity relative to dillapiol = 1 (CYP3A4 (BDGentest)): 0.57

C=CCc1cc2c(c(C(O)CCCCCCCC)c1OC)OCO2 (centres unmarked) [Compound 2]
CYP3A4 inhibition compared with dillapiol (in words) (human cytochrome CYP3A4 [2]; Table 1): at least four times lower than dillapiol
Rel. Activity Dillapiol = 1.0 (human cytochrome CYP3A4 [2]; Table 1): 15
IC50 (human cytochrome CYP3A4 [2]; [4]): 26 µM

C=CCc1cc2c(c(CO)c1OC)OCO2 [Compound 4]
Rel. Activity Dillapiol = 1.0 (human cytochrome CYP3A4 [2]; Table 1): 0.45
IC50 (human cytochrome CYP3A4 [2]; [4]): 900 µM

C=CCc1cc2c(c(S(=O)(=O)c3ccc(OC)cc3)c1O)OCO2 [Compound 23]
Rel. Activity Dillapiol = 1.0 (human cytochrome CYP3A4 [2]; Table 1): 1.8
IC50 (human cytochrome CYP3A4 [2]; [4]): 230 µM

C=CCc1cc2c(c(COC)c1OC)OCO2 [Compound 5]
Rel. Activity Dillapiol = 1.0 (human cytochrome CYP3A4 [2]; Table 1): 1.3
IC50 (human cytochrome CYP3A4 [2]; [4]): 320 µM

C=CCc1cc2c(c(O)c1OC)OCO2 [Compound 10]
IC50 (human cytochrome CYP3A4 [2]): 1600 µM
Rel. Activity Dillapiol = 1.0 (human cytochrome CYP3A4 [2]; Table 1): 0.26

COc1c(/C=C/CC(O)(c2ccccc2)c2ccccc2)cc2c(c1OC)OCO2 [Compound 1]
CYP3A4 inhibition (in words) (CYP3A4 (BDGentest)): increased inhibition of CYP3A4 compared to dillapiol
IC50 (CYP3A4 (BDGentest); [3]): 1.58 µM
% Activity relative to dillapiol = 1 (CYP3A4 (BDGentest)): 5.8
CYP3A4 inhibition compared with dillapiol (in words) (human cytochrome CYP3A4 [2]; Table 1): at least four times lower than dillapiol
Rel. Activity Dillapiol = 1.0 (human cytochrome CYP3A4 [2]; Table 1): 100 and 114
IC50 (human cytochrome CYP3A4 [2]; [4]): 3.6 µM

C=CCc1cc2c(c(C=O)c1OC)OCO2 [Compound 8]
Rel. Activity Dillapiol = 1.0 (human cytochrome CYP3A4 [2]; Table 1): 0.66
IC50 (human cytochrome CYP3A4 [2]; [4]): 620 µM

COc1c(CCCOC(=O)c2ccccc2)cc2c(c1OC)OCO2 [Compound 12]
CYP3A4 inhibition (in words) (CYP3A4 (BDGentest)): increased inhibition of CYP3A4 compared to dillapiol
IC50 (CYP3A4 (BDGentest); [3]): 2.1 µM and 2.11 µM
% Activity relative to dillapiol = 1 (CYP3A4 (BDGentest)): 4.4
CYP3A4 inhibition compared with dillapiol (in words) (human cytochrome CYP3A4 [2]; Table 1): at least four times lower than dillapiol
Rel. Activity Dillapiol = 1.0 (human cytochrome CYP3A4 [2]; Table 1): 29
IC50 (human cytochrome CYP3A4 [2]; [4]): 14 µM
